Data on 8 compounds can be found in ChEMBL document CHEMBL5634192, “Transforming Therapeutic Approaches with PROTAC Technology: New Targets and Potentials” (ACS Med Chem Lett, 2024).

The target of assay [1] is T1, von Hippel-Lindau disease tumor suppressor/Interleukin-1 receptor-associated kinase 4 (Homo sapiens, UniProt Q9NWZ3+P40337). The experiment in a line: PROTAC activity at VHL E3 ligase/IRAK4 in human PBMC cells assessed as induction of degradation of IRAK4 incubated overnight by ELISA method relative to control. The assay is classed as cell-based. Background: In an ELISA, binding on a coated surface is turned into a signal by an enzyme label.
Target sequence in this assay (P40337 whole entry, looked up): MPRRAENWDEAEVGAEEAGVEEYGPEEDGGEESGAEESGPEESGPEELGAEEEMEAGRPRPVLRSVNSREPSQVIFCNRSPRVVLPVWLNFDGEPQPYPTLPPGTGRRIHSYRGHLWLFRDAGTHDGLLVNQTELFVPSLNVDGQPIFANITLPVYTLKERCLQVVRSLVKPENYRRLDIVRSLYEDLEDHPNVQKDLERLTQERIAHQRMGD
Target sequence in this assay (Q9NWZ3 whole entry, looked up): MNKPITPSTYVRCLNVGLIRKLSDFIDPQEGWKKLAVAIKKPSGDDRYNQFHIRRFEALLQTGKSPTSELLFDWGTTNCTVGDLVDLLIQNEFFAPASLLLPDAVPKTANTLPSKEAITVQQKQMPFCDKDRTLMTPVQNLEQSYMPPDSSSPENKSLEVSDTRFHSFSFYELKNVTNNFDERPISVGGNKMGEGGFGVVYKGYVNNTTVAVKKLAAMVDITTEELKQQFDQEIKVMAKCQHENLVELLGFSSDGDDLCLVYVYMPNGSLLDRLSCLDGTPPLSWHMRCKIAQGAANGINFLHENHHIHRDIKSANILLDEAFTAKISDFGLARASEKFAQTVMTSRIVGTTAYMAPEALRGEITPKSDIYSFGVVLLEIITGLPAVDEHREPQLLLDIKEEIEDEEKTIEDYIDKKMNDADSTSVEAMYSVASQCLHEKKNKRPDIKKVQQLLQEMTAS

The target in assay [2] is T1, von Hippel-Lindau disease tumor suppressor/Interleukin-1 receptor-associated kinase 4. The experiment in a line: PROTAC activity at VHL E3 ligase/IRAK4 in human PBMC cells assessed as induction of degradation of IRAK4 incubated overnight by ELISA method. Type of assay: cell-based.

Turning to `O=C1CCC(c2ccc(N3CCC4(CC3)CC(CN3CCC(n5cc6cc(NC(=O)c7cnn8cccnc78)c(OCC7CC7)cc6n5)CC3)C4)cc2F)C(=O)N1` (centres undefined), in assay [1], the Emax (in general, the size of the effect at its maximum, as opposed to the concentration needed) is > 90%. For the same compound, in assay [2], the DC50 – broadly, the concentration giving 50% degradation – worked out at 1 nM and the EC90 – broadly, the concentration at which the effect reaches the 90% level – is < 10 nM.
For `O=C1CCC(c2ccc(N3CC(F)(CN4CCC(n5cc6cc(NC(=O)c7cnn8cccnc78)c(OCC7CC7)cc6n5)CC4)C3)cc2F)C(=O)N1` (centres undefined) the same measures were > 90%, < 1 nM and < 10 nM.
`CC(C)Oc1cc2c(cc1NC(=O)c1cnn3cccnc13)CN(C1CCN(CC3CCN(c4ccc(C5CCC(=O)NC5=O)cc4)CC3)CC1)C2=O` (centres undefined): in assay [1], the Emax is > 90%. Moreover, in assay [2], the 50% degradation concentration (DC50) came to 1 nM and the concentration for an effect of 90% (EC90) is < 10 nM.
The like results for `O=C1CCC(c2ccc(N3CC(F)(CN4CCC(n5cc6cc(NC(=O)c7cnn8cccnc78)c(N7CCC(N8CCC8)CC7)cc6n5)CC4)C3)cc2F)C(=O)N1` (centres undefined) were, in that order, > 90%, < 1 nM and < 10 nM.
Regarding `CC(C)Oc1cc2c(cc1NC(=O)c1cnn3cccnc13)CN(C1CCN(CC3CCN(c4ccc(C5CCC(=O)NC5=O)c(F)c4)CC3)CC1)C2=O` (centres undefined), in assay [1], the Emax is > 90%. Further, in assay [2], the DC50 was < 1 nM and the 90% effect concentration (EC90) is < 10 nM.
For the compound `CC(C)Oc1nc2c(cc1NC(=O)c1cnn3cccnc13)CN(C1CCN(CC3CCN(c4ccc(C5CCC(=O)NC5=O)c(F)c4)CC3)CC1)C2=O` (centres undefined), in assay [1], the Emax was > 90%. In assay [2], the DC50 is < 1 nM and the 90% effect concentration (EC90) was < 10 nM.
The like results for `O=C1CCC(c2ccc(N3CCC4(CCC(CN5CCC(n6cc7cc(NC(=O)c8cnn9cccnc89)c(OCC8CC8)cc7n6)CC5)CC4)CC3)cc2F)C(=O)N1` (centres undefined) were, in that order, > 90%, < 1 nM and < 10 nM.
The like results for `CC(C)Oc1cc2c(cc1NC(=O)c1cnn3cccnc13)CN(C1CCN(CC3CCN(c4ccc(C5CCC(=O)NC5=O)cn4)CC3)CC1)C2=O` (centres undefined) were, in that order, > 90%, < 1 nM and < 10 nM.
